Experimental data: patent US10342773B2, “Composition containing dihomo-γ-linolenic acid (DGLA) as the active ingredient” (SUNTORY HOLDINGS LIMITED, priority 2005, dated 2019)
Read-outs that look alike come from different tables or passages of the source.

Experiments:
NC/Nga mice = settings: cited from earlier work
[1] = in vivo
Experimental: In order to clarify the relationship between the amount of DGLA orally ingested in humans and the internal DGLA level, the amount of DGLA orally ingested was investigated by examination of the diet, and after drawing blood, the amount of DGLA in the serum phospholipids was determined. The subjects were eleven healthy males aged 60-70, and were asked to keep a diary of the content of their diets. From the diary, the amount ingested by each food material was determined for meat, eggs, and seafood known to contain DGLA, and using the DGLA content of each food material calculated from “Fourth revised [sequence] […] From the amount of DGLA ingested per week, the mean amount of DGLA ingested per day was calculated for each person.
On the other hand, blood was drawn the day after the last entry of the diary, and for the serum phospholipid fractions obtained, the fatty acid composition was analyzed according to a standard method. Thus, from the serum the lipid component extracted by the Folch method, a standard method, and the lipid was fractionated on a thin layer chromatography (the developing solution is hexane/diethyl ether=7/3) to obtain the phospholipid fraction. […] The fatty acid methyl ester mixture was analyzed by a capillary gas chromatography to obtain DGLA (% by weight) in the total fatty acids in the serum phospholipid.

eosinophil migration = settings: guinea pigs, cited from earlier work

For CC/C=C\C/C=C\C/C=C\CCCCCCCC(=O)O [ALA, α-linolenic acid], the “prevention of atopic dermatitis (correction of dermatitis symptoms and blood IgE)” value (NC/Nga mice; same mouse model, diet containing a large amount of ALA, exact dose not known) is given as “no effect of preventing atopic dermatitis”.
For CCCCC/C=C\C/C=C\C/C=C\CCCCCCC(=O)O [DGLA, dihomo-γ-linolenic acid], the “amount of DGLA required to increase DGLA in serum phospholipid about 3% by weight” value [1] was “about 100 mg per day” and the “increase of DGLA in the serum phospholipid with each increase of about 32 mg in the amount of DGLA ingested” value [1] was 1 % by weight.
In the case of CC/C=C\C/C=C\C/C=C\C/C=C\C/C=C\C/C=C\CCC(=O)OCC [DHA ethylester], the “eosinophil migration in the delayed type allergy” value (eosinophil migration; intraperitoneal administration of 50 mg) is listed as “can inhibit eosinophil migration”.
For CC/C=C\C/C=C\C/C=C\C/C=C\C/C=C\CCCC(=O)OCC [EPA ethylester], the “eosinophil migration in the delayed type allergy” value (eosinophil migration; intraperitoneal administration of 100 mg) is given as “can inhibit eosinophil migration”.
In the case of CCCCC/C=C\C/C=C\C/C=C\CCCCC(=O)O [GLA, γ-linolenic acid], the “formation of atopic dermatitis and IgE production” value (NC/Nga mice; NC/Nga mice, oral ingestion about 1250 mg/kg/day) is listed as “effects of inhibiting the formation of atopic dermatitis and IgE production”.
